In patent US9421273B2, “Silicon-containing fumaric acid esters” (Biogen Idec MA Inc., priority 2011, dated 2016):
Structures can show the parent of a compound that is named as a salt.

Tests used:
[1] = tested on: Nrf2 (ARE-luciferase reporter) in DLD-1/ARE-E2 cells; experiment: Nrf2 activation cell-based assay, ARE-luciferase reporter, DLD-1/ARE-E2 cell line; set-up: species or system Human; settings: for Concentration at maximum Nrf2 activation fold change (@ [uM]) / Maximum Nrf2 Activation Fold Change: DLD-1/ARE-E2; for Maximum Nrf2 Activation Fold Change: luciferase fold change over DMSO control; for Activation of ARE-dependent signaling of the luciferase reporter construct: summary in words of Table 1 (both reporter cell lines)
Protocol: (§1) Human cancer cell line DLD-1 and breast cancer cell line MCF7 reporter stable cell lines were generated by transfection with a firefly luciferase reporter construct harboring the luciferase cDNA cloned downstream of eight catenated copies of the antioxidant response element (ARE: SEQ ID NO.:1).
(§2) To measure Nrf2 activation in the ARE-luciferase reporter cell lines, the cells were plated in 96-well plates at 20-50 k cells/well 24 hours prior to stimulation with the test compounds. The test compounds were prepared in dimethylsulfoxide (DMSO) and diluted with culture media to required concentrations (final DMSO concentrations <0.3%). The reporter cells were harvested 24 hours-48 hours after addition of the compounds and lysed for detection of luciferase activity. Luciferase activity in the lysates was monitored using the Bright-Glo Luciferase Assay System of Promega and Tecan Genios Pro plate reader.
(§3) Luciferase induction in the compound-treated cells was calculated as fold change over the baseline activity detected in control cultures treated with DMSO-containing media.

[2] = tested on: Nrf2 (ARE-luciferase reporter) in MCF7/ARE-D3 cells; experiment: Nrf2 activation cell-based assay, ARE-luciferase reporter, MCF7/ARE-D3 cell line; set-up: species or system Human; settings: for Maximum Nrf2 Activation Fold Change: luciferase fold change over DMSO control
Protocol: as §1, §2, §3

For `COC(=O)/C=C/C(=O)O[Si](C)(C)OC(=O)/C=C/C(=O)OC` [Compound 11, (E)-O,O′-(dimethylsilanediyl)dimethyl difumarate], the “Concentration at maximum Nrf2 activation fold change (@ [uM])” value ([1]; 24 hr stimulation) was 1000 µM, the “Maximum Nrf2 Activation Fold Change” value ([1]; 24 hr stimulation) was 42 and the “Concentration at maximum Nrf2 activation fold change (@ [uM])” value ([1]; 48 hr stimulation) was 1000 µM. The “Maximum Nrf2 Activation Fold Change” value ([1]; 48 hr stimulation) was 43, the “Activation of ARE-dependent signaling of the luciferase reporter construct” value [1] was “able to activate ARE-dependent signaling” and the “Concentration at maximum Nrf2 activation fold change (@ [uM])” value ([2]; 24 hr stimulation) was 750 µM. For the same molecule, the “Maximum Nrf2 Activation Fold Change” value ([2]; 24 hr stimulation) was 97, the “Concentration at maximum Nrf2 activation fold change (@ [uM])” value ([2]; 48 hr stimulation) was 500 µM and the “Maximum Nrf2 Activation Fold Change” value ([2]; 48 hr stimulation) was 126.
In the case of `COC(=O)/C=C/C(=O)OC[Si](OC)(OC)OC` [Compound 12, methyl ((trimethoxysilyl)methyl) fumarate], the “Concentration at maximum Nrf2 activation fold change (@ [uM])” value ([1]; 24 hr stimulation) is reported as 250 µM, the “Maximum Nrf2 Activation Fold Change” value ([1]; 24 hr stimulation) is reported as 24 and the “Concentration at maximum Nrf2 activation fold change (@ [uM])” value ([1]; 48 hr stimulation) is reported as 375 µM. The “Maximum Nrf2 Activation Fold Change” value ([1]; 48 hr stimulation) was 48, the “Activation of ARE-dependent signaling of the luciferase reporter construct” value [1] was “able to activate ARE-dependent signaling” and the “Concentration at maximum Nrf2 activation fold change (@ [uM])” value ([2]; 24 hr stimulation) was 500 µM. The “Maximum Nrf2 Activation Fold Change” value ([2]; 24 hr stimulation) was 49, the “Concentration at maximum Nrf2 activation fold change (@ [uM])” value ([2]; 48 hr stimulation) was 500 µM and the “Maximum Nrf2 Activation Fold Change” value ([2]; 48 hr stimulation) was 65.
In the case of `COC(=O)/C=C/C(=O)OC` [DMF, dimethyl fumarate, reference compound], the “Concentration at maximum Nrf2 activation fold change (@ [uM])” value ([1]; 24 hr stimulation) is reported as 31 µM, the “Maximum Nrf2 Activation Fold Change” value ([1]; 24 hr stimulation) is reported as 11 and the “Concentration at maximum Nrf2 activation fold change (@ [uM])” value ([1]; 48 hr stimulation) is reported as 47 µM. For the same molecule, the “Maximum Nrf2 Activation Fold Change” value ([1]; 48 hr stimulation) was 13, the “Concentration at maximum Nrf2 activation fold change (@ [uM])” value ([2]; 24 hr stimulation) was 94 µM and the “Maximum Nrf2 Activation Fold Change” value ([2]; 24 hr stimulation) was 24. For the same molecule, the “Concentration at maximum Nrf2 activation fold change (@ [uM])” value ([2]; 48 hr stimulation) was 94 µM and the “Maximum Nrf2 Activation Fold Change” value ([2]; 48 hr stimulation) was 45.
With `COC(=O)/C=C/C(=O)O` [MMF, monomethyl fumarate, reference compound] the “Concentration at maximum Nrf2 activation fold change (@ [uM])” value ([1]; 24 hr stimulation) was 1000 µM, the “Maximum Nrf2 Activation Fold Change” value ([1]; 24 hr stimulation) was 7 and the “Concentration at maximum Nrf2 activation fold change (@ [uM])” value ([1]; 48 hr stimulation) was 1000 µM. For the same molecule, the “Maximum Nrf2 Activation Fold Change” value ([1]; 48 hr stimulation) was 14, the “Concentration at maximum Nrf2 activation fold change (@ [uM])” value ([2]; 24 hr stimulation) was 1000 µM and the “Maximum Nrf2 Activation Fold Change” value ([2]; 24 hr stimulation) was 56. The “Concentration at maximum Nrf2 activation fold change (@ [uM])” value ([2]; 48 hr stimulation) was 1000 µM and the “Maximum Nrf2 Activation Fold Change” value ([2]; 48 hr stimulation) was 88.
